Data: patent US7902198B2, “Crystalline aripiprazole solvates” (Synthon BV, priority 2004, dated 2011)

Assays:
[1] = as taught in WO 03/26659, cited from earlier work
[2] = Solid-state stability towards thermal energy, milling and forced sieving; conditions: for change of crystalline structure during milling: milling (Example 7: ball mill 1 minute, IR and XRPD)
[3] = Solid-state stability upon storage at room temperature; format: physicochemical; conditions: hemi-ethanolate for at least one month, methanolate prolonged storage
Description: In practice, the molar ratio between aripiprazole and ethanol moieties in the isolated product is from 1:0.4 to 1:0.6, preferably 1:0.45 to 1:0.6.

For O=C1CCc2ccc(OCCCCN3CCN(c4cccc(Cl)c4Cl)CC3)cc2N1 [Anhydrous Form B, 7-[4-[4-(2,3-dichlorophenyl)-1-piperazinyl]butoxy]-3,4-dihydrocarbostyril], which water uptake ([1]; in 24 hours) is on record?
The water uptake was “less than 0.4%”.

Which “stability towards thermal energy, including milling” value [2] does the source give for O=C1CCc2ccc(OCCCCN3CCN(c4cccc(Cl)c4Cl)CC3)cc2N1 [Aripiprazole hemi-ethanolate, 7-[4-[4-(2,3-dichlorophenyl)-1-piperazinyl]butoxy]-3,4-dihydrocarbostyril] here?
The value was “rather unstable”.

And the stability upon storage [3]?
Its stability upon storage is “reasonably stable”.

With O=C1CCc2ccc(OCCCCN3CCN(c4cccc(Cl)c4Cl)CC3)cc2N1 [Example 5] as the compound, how does the “effect of forced sieving on the crystal structure” value ([2]; pressed through a 100 μm sieve, IR, XRPD) read?
Its value is “no detectable effect on the crystal structure”.

With O=C1CCc2ccc(OCCCCN3CCN(c4cccc(Cl)c4Cl)CC3)cc2N1 [Example 7] as the compound, how does the “change of crystalline structure during milling” value [2] read?
Its value is “crystal structure has not been changed”.

Which hygroscopicity [1] does the source give for O=C1CCc2ccc(OCCCCN3CCN(c4cccc(Cl)c4Cl)CC3)cc2N1 [Type I aripiprazole, 7-[4-[4-(2,3-dichlorophenyl)-1-piperazinyl]butoxy]-3,4-dihydrocarbostyril] here?
The hygroscopicity was “significantly hygroscopic”.

With O=C1CCc2ccc(OCCCCN3CCN(c4cccc(Cl)c4Cl)CC3)cc2N1 [aripiprazole methanolate, 7-[4-[4-(2,3-dichlorophenyl)-1-piperazinyl]butoxy]-3,4-dihydrocarbostyril] as the compound, how does the “change of crystalline structure during milling” value [2] read?
Its value is “does not change its crystalline structure”.

What about the stability upon storage [3] of the same compound?
Its stability upon storage is “more stable upon prolonged storage at room temperature than the hemi-ethanolate”.
